One compound from ChEMBL document CHEMBL3832061 can be followed below.

The nature of series [1]: (§1) Pharmacokinetic parameters for Zolmitriptan following oral administration of Zolmitriptan tablets to subjects with different healthy conditions. Type of series: ADME, organism-based. The note with it: human, in vivo.
The next series concerns Homo sapiens. Described as §1. Type of series: ADME, organism-based. The note with it: in vivo.

For the compound `CN(C)CCc1c[nH]c2ccc(C[C@H]3COC(=O)N3)cc12` [ZOLMITRIPTAN], the CL/F (commonly the apparent clearance, not corrected for the fraction that reaches the circulation) in series [1] came out at 31.5 mL/min/kg. Moreover, the dose excreted in series [1] (read-out: Excretion) was determined as 8%. For the same compound, in the series with Homo sapiens, the time to peak (Tmax) (as a rule, the time from dosing to the highest level) is 3 hr [middle of 4 runs] and the Vd was 7 L/kg.
